# pEC50, pIC50, pKd: −log10 of the molar value.
# What was measured:
# [1] = target: Type 1 fimbrin D-mannose specific adhesin (Escherichia coli K-12) (UniProt P08191); experiment: Inhibition of Escherichia coli UTI89 FimH by hemagglutination assay
# Staphylococcus aureus [2] = experiment: Antibiofilm activity against methicillin-sensitive Staphylococcus aureus UAMS-1 measured after 22 hrs by crystal violet staining based assay; format: functional; conditions: for MIC50: Staphylococcus aureus, UAMS-1
# Streptococcus agalactiae [3] = experiment: Antibiofilm activity against Streptococcus agalactiae GRS90; format: functional; conditions: dose 128 µg/ml; time 22 hrs
# Streptococcus agalactiae [4] = experiment: Antibiofilm activity against Streptococcus agalactiae GB2; format: functional
# Staphylococcus aureus [5] = experiment: Antibacterial activity against Staphylococcus aureus ATCC 25923 assessed as inhibition of biofilm formation incubated for 24 hrs by crystal violet staining based analysis relative to control; format: functional; parameters: scale not given: the % may be the effect or the level left
# Serratia marcescens = experiment: Antibacterial activity against Serratia marcescens ATCC 27117 assessed as inhibition of biofilm formation at 50 ug/ml incubated for 24 hrs by crystal violet staining based analysis relative to control; format: functional; parameters: scale not given: the % may be the effect or the level left; conditions: dose 50 µg/ml
# [6] = target: T1, PA-I galactophilic lectin (Pseudomonas aeruginosa (strain ATCC 15692 / PAO1 / 1C / PRS 101 / LMG12228), UniProt Q05097); experiment: Inhibition of Pseudomonas aeruginosa LecA incubated for 4 to 6 hrs by fluorescence polarization based competitive binding analysis
# T1 sequence (Q05097 whole entry): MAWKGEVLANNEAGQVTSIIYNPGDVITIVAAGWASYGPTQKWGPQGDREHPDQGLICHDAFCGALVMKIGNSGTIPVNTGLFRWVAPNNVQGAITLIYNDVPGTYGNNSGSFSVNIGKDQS
# [7] = target: T1, PA-I galactophilic lectin; experiment: Binding affinity to Pseudomonas aeruginosa LecA assessed as dissociation constant by isothermal titration calorimetry
# Escherichia coli = experiment: Antibiofilm activity against Escherichia coli UTI89; format: functional, organism-based
# [8] = test system: Mycolicibacterium smegmatis; experiment: Antimicrobial activity against Mycobacterium smegmatis MC2 155 assessed as planktonic growth inhibition measured after 48 hrs by microplate reader analysis; format: functional
# [9] = test system: Mycolicibacterium smegmatis; experiment: Antibiofilm activity against Mycobacterium smegmatis MC2 155 assessed as […] measured after 48 hrs by crystal violet staining based analysis; format: functional
# Staphylococcus aureus [10] = experiment: Potentiation of vancomycin-induced antibacterial activity against methicillin resistant Staphylococcus aureus Mu50 in presence of vancomycin; format: functional, organism-based
# [11] = Binding affinity to Lactobacillus reuteri Glucosyltransferase assessed as dissociation constant by SPR analysis; parameters: species or system Limosilactobacillus reuteri
# Pseudomonas aeruginosa = experiment: Antibacterial activity against Pseudomonas aeruginosa PAO1 NCTC 10332 assessed as inhibition of biofilm formation incubated for 24 hrs by crystal violet staining based analysis; format: functional, organism-based; conditions: PAO1 NCTC 10332, 24 h
# [12] = target: Type 1 fimbrin D-mannose specific adhesin (Escherichia coli K-12) (UniProt P08191); experiment: Relative inhibitory potency, ratio of methyl alpha-D-mannose Kd to compound Kd for binding affinity to C-terminal His-tagged truncated Escherichia coli FimH by SPR analysis; conditions: K12
# Chain of Type 1 fimbrin D-mannose specific adhesin (Escherichia coli K-12) (P08191 whole entry, the tested form may be a part): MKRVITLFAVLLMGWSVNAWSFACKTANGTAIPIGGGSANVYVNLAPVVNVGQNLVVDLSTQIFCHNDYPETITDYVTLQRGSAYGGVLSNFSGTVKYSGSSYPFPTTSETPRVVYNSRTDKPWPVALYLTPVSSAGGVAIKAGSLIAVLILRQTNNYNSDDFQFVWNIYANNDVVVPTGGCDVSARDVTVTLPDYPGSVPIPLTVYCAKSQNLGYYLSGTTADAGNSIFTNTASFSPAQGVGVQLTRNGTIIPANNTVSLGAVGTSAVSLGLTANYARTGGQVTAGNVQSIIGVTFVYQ
smiles,measurement,setting,value
O=c1[nH]ccc2ccc(-c3ccc(O[C@H]4O[C@H](CO)[C@@H](O)[C@H](O)[C@@H]4O)cc3)cc12,EC>90,[1],100 nM
O=c1oc2c(O[C@@H]3OC[C@@H](O)[C@H](O)[C@H]3O)c(O)cc3c(=O)oc4c(O)c(O)cc1c4c23,MBIC50,Staphylococcus aureus [2],64 µg/mL
same,MBIC90,Staphylococcus aureus [2],>512 µg/mL
same,MIC50,Staphylococcus aureus [2],32 µg/mL
same,MBIC50,Streptococcus agalactiae [3],512 µg/mL
same,MBIC50,Streptococcus agalactiae [4],512 µg/mL
CCCCCCC[C@H](CC(=O)N1CCCCC1)OC(=O)C[C@@H](CCCCCCC)O[C@@H]1O[C@@H](C)[C@H](O)[C@@H](O)[C@H]1O[C@@H]1O[C@@H](C)[C@H](O)[C@@H](O)[C@H]1O,Activity,Staphylococcus aureus [5],>90%
same,Activity,Serratia marcescens,>80%
O=C(N/N=C/c1ccc(Oc2ccc(/C=N/NC(=O)c3ccc(O[C@@H]4O[C@H](CO)[C@H](O)[C@H](O)[C@H]4O)cc3)cc2)cc1)c1ccc(O[C@@H]2O[C@H](CO)[C@H](O)[C@H](O)[C@H]2O)cc1,pIC50,[6],5.30
same,pKd,[7],4.97
Cc1cc(-c2ccc3cc[nH]c(=O)c3c2)ccc1O[C@H]1O[C@H](CO)[C@@H](O)[C@H](O)[C@@H]1O,pIC50,Escherichia coli,6.89
same,EC>90,[1],31 nM
OC[C@H]1O[C@H](O[C@@H]2C[C@@H](O)[C@H](O)[C@@H](CO)O2)[C@H](O)[C@@H](O)[C@@H]1O,MIC,[8],> 500 µM
same,MBIC,[9],50 µM
[N-]=[N+]=NC[C@H]1O[C@H](O[C@H]2O[C@H](CO)[C@@H](O)[C@H](O)[C@H]2O)[C@H](O)[C@@H](O)[C@@H]1O,MIC,[8],> 500 µM
same,MBIC,[9],50 µM
OC[C@H]1O[C@H](O[C@H]2O[C@H](CF)[C@@H](O)[C@H](O)[C@H]2O)[C@H](O)[C@@H](O)[C@@H]1O,MIC,[8],> 500 µM
same,MBIC,[9],100 µM
OC[C@H]1O[C@H](O[C@H]2O[C@H](CO)[C@@H](O)[C@H](O)[C@H]2F)[C@H](O)[C@@H](O)[C@@H]1O,MIC,[8],> 500 µM
same,MBIC,[9],100 µM
CNC(=O)c1cc(C(=O)NC)cc(-c2ccc(O[C@H]3O[C@H](CO)[C@@H](O)[C@H](O)[C@@H]3O)c(C)c2)c1,EC>90,[1],16 nM
OC[C@H]1O[C@@H](Sc2ccc3ccccc3c2)[C@H](O)[C@@H](O)[C@H]1O,pEC50,Staphylococcus aureus [10],5.10
CCCCCCC[C@H](CC(=O)NCc1ccccc1)OC(=O)C[C@@H](CCCCCCC)O[C@@H]1O[C@@H](C)[C@H](O)[C@@H](O)[C@H]1O[C@@H]1O[C@@H](C)[C@H](O)[C@@H](O)[C@H]1O,Activity,Staphylococcus aureus [5],>90%
same,Activity,Serratia marcescens,>80%
CNC(=O)c1cc(C(=O)NC)cc(-c2ccc(O[C@H]3O[C@H](CO)[C@@H](O)[C@H](O)[C@@H]3O)cc2)c1,EC>90,[1],375 nM
C[C@H]1[C@H](Oc2ccc(/C=N/NC(=O)COc3ccccc3Cl)cc2)O[C@H](CO)[C@@H](O)[C@@H]1O,pKd,[11],3.40
O=C(NC[C@]1(O)CO[C@H](CNC(=O)c2ccccc2Cl)[C@H]1O)c1ccccc1,pEC50,Staphylococcus aureus [10],5.10
CCCCCCC[C@H](CC(=O)O)OC(=O)C[C@@H](CCCCCCC)O[C@@H]1O[C@@H](C)[C@H](O)[C@@H](O)[C@H]1O[C@@H]1O[C@@H](C)[C@H](O)[C@@H](O)[C@H]1O,IC50,Pseudomonas aeruginosa,75 µg/mL
[N-]=[N+]=N[C@H]1[C@@H](O[C@H]2O[C@H](CO)[C@@H](O)[C@H](O)[C@H]2O)O[C@H](CO)[C@@H](O)[C@@H]1O,MIC,[8],> 500 µM
same,MBIC,[9],500 µM
OC[C@H]1O[C@@H](Oc2ccccc2)[C@H](O)[C@@H](O)[C@H]1O,pIC50,[6],4.88
CNC(=O)c1cccc(-c2ccc(O[C@H]3O[C@H](CO)[C@@H](O)[C@H](O)[C@@H]3O)cc2)c1,EC>90,[1],500 nM
Cc1cc(-c2ccc3ccn(CC(=O)Nc4cccnc4)c(=O)c3c2)ccc1O[C@H]1O[C@H](CO)[C@@H](O)[C@H](O)[C@@H]1O,pIC50,Escherichia coli,7.74
same,EC>90,[1],1 nM
CNC(=O)c1cc(C(=O)NC)cc(-c2ccc(O[C@H]3O[C@H](CO)[C@@H](O)[C@H](O)[C@@H]3O)c(C(F)(F)F)c2)c1,EC>90,[1],8 nM
CO[C@H]1O[C@H](CO)[C@@H](O)[C@H](O)[C@@H]1O,Ratio,[12],1
C[C@@H]1O[C@@H](Oc2c(O)cc3c(=O)oc4c(O)c(O)cc5c(=O)oc2c3c45)[C@H](O)[C@H](O)[C@H]1O,MBIC50,Staphylococcus aureus [2],64 µg/mL
same,MBIC90,Staphylococcus aureus [2],128 µg/mL
same,MIC50,Staphylococcus aureus [2],> 512 µg/mL
